Results on 1 compound are retold here after US20260191923A1, “COMPOSITIONS” (GIVAUDAN SA, priority 2022, published 2026).

What all share (format): cell-based
Assay [1] concerns human gut microbiome. The assay is described as follows: Short term colonic simulation: changes in community composition by 16S-targeted Illumina sequencing (heat map, LEfSe, beta diversity). As to conditions: after 48 hours; ascorbic acid 1.67 g/L; comparator not stated. An excerpt:
The test products used in these experiments included a red acerola fruit powder containing 20% vitamin C and a green acerola fruit powder containing 34% vitamin C provided by Naturex-Givaudan. Commercial synthetic ascorbic acid and a 55:45 mixture of fructose and glucose served as relevant control groups. The test products contained a fraction of digestible compounds (sugar, for e.g.) that, in vivo, are absorbed in the small intestine following conversion to small molecules by digestive enzymes. […] Stock solutions of test products and controls were prepared and exposed to conditions simulating oral, gastric, and small intestinal passage. […]
Sampling was performed periodically with a syringe through a rubber septum. […] Changes in ammonium production were assessed by sampling at the start of incubation and after 48 hours. […]
The methodology applied involves primers that span 2 hypervariable regions (V3-V4) of the 16S rRNA gene, i.e. primers 341F-785R described in Bekliz et al (Bekliz, M., Pramateftaki, P., Battin, T. J. et al. Viral diversity is linked to bacterial community composition in alpine stream biofilms. ISME COMMUN. 2, 27 (2022). https://doi.org/10.1038/s43705-022-00112-9). […] Read assembly and cleanup was largely derived from the MiSeq SOP described by the Schloss lab. […]

The subject of assay [2] is human gut microbiome. The assay is described as follows: Short term colonic simulation (48 hours colonic fermentation): overall fermentative activity, pH and gas production. Particulars: pre-digested products, fecal inoculum of a single human donor, triplicate; 0-6 hours; doses of Table 1. An excerpt:
(§1) The test products used in these experiments included a red acerola fruit powder containing 20% vitamin C and a green acerola fruit powder containing 34% vitamin C provided by Naturex-Givaudan. Commercial synthetic ascorbic acid and a 55:45 mixture of fructose and glucose served as relevant control groups. The test products contained a fraction of digestible compounds (sugar, for e.g.) that, in vivo, are absorbed in the small intestine following conversion to small molecules by digestive enzymes. […] Stock solutions of test products and controls were prepared and exposed to conditions simulating oral, gastric, and small intestinal passage. Typically, a dialysis procedure is employed to simulate absorption of small molecules in the small intestine, but this step was omitted for these test products, as the dialysis procedure would lead to losses of compounds in acerola (polyphenols) that would reach the colon in vivo and exert an effect on the microbiome. […] Changes in ammonium production were assessed by sampling at the start of incubation and after 48 hours. Analysis of microbial community structure was performed at the start of the incubation and after 48 hours. pH was measured in each reactor at each time point as a single repetition. Gas production was measured in the headspace of the fermentation vessels as a single repetition.

The test system of assay [3] is human gut microbiome. Put plainly: Short term colonic simulation: microbial metabolite (SCFA) production by capillary gas chromatography-FID. Particulars: 48 hours colonic fermentation; acerola 3.5 g/L, sugar control 1.75 g/L, ascorbic acid 1.67 g/L; FIG. 1.
Excerpt: as §1, with “microbiome. A 48 hours colonic fermentation was performed in the presence of test compounds and relevant controls to determine the effect of the test products on the gut microbiome.” for “microbiome.”, “[…] Quantitative analysis” for “Analysis of microbial community structure was performed at the start”, “SCFA” for “incubation and after 48 hours. pH”, “done by means of capillary gas chromatography, coupled with” for “measured in each reactor at each time point as”, “flame ionization detector (FID). […]” for “single repetition. Gas production was measured in the headspace of the fermentation vessels as a single repetition.”

Regarding `O=C1O[C@H]([C@@H](O)CO)C(O)=C1O` [Ascorbic acid, ascorbic acid], the “strongest enrichments (LEfSe), OTUs of the genera/families” value in assay [1] was “Bacteroides, Lachnoclostridium, GCA-900066575, Anaerostipes, Agathobacter, Oscillibacter, Alistipes, Lachnospiraceae, Flavonifractor, Coprococcus and Blautia”. In assay [2], the pH shift result is listed as “failed to produce a significant shift in pH”. The propionate production result in assay [3] is reported as “Each product, except ascorbic acid, stimulated propionate production”.
